In US12622910B2, “Inhibitors of Bruton's tyrosine kinase and methods of their use” (Janssen Pharmaceutica NV, priority 2021, dated 2026):

What was measured:
[1] = Plasma protein binding, equilibrium dialysis; assay type: in vitro ADME, guinea pig
Description: (§1) Additional Data on Preclinical PK Profile—Protein binding of the compound of Formula (III) was studied using an equilibrium dialysis method in plasma from human, cynomolgus monkey, beagle dog, Sprague Dawley rat, CD-1 mouse, and guinea pig at 0.25, 2.5, and 25 μM. […] In human and monkey, the plasma protein binding was concentration dependent. […] Free fraction of the compound of Formula (III) in liver microsomes from various species ranged from 75.1% to 87.9% at 0.25 mg/mL and from 58.9% to 86.5% at 1.0 mg/mL (Table 17). […] In hepatocytes, the compound of Formula (III) turnover followed a similar trend, with T1/2 ranging from 75.3 minutes in monkey to 278.1 minutes in human.

BTK = BTK (Homo sapiens, UniProt Q06187); test: Phase 1 study, BTK occupancy in PBMCs; assay type: in vivo; set-up: measuring free BTK levels in peripheral blood mononuclear cells (PBMCs) and calculating % BTKO; endogenous in cells; host or cells: human PBMCs, lysed after isolation from whole blood; conditions: for BTKO at 24 hr, ss, median observed / Calculated Average BTKO, observed / Max BTKO at ss, median observed: Day 10 oral solution; for mean BTKO: all MAD dose groups
Sequence of BTK (Q06187 whole entry): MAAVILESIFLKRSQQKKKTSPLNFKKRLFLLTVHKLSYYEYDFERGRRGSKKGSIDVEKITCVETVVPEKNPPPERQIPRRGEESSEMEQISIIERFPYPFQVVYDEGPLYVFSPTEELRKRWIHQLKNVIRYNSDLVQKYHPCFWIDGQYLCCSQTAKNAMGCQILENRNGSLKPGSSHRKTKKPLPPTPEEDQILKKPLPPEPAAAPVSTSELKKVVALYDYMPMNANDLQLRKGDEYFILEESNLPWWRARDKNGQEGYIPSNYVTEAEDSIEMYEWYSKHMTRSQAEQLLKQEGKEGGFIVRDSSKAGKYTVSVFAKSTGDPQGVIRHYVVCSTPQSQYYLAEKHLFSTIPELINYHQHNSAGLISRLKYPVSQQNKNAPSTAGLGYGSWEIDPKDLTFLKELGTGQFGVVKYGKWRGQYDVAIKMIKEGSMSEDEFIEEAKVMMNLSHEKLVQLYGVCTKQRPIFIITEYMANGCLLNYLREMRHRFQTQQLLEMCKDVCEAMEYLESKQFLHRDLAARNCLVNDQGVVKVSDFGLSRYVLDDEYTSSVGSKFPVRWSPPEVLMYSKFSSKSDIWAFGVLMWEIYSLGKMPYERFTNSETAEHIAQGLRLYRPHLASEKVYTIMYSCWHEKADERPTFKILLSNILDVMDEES
Description: Pharmacodynamics (BTKO)—In Part 1, venous blood samples (8 mL) were collected predose and at 1, 2, 4, 8, 12, 24, 48, and 72 hours post-dose for measuring free BTK levels in peripheral blood mononuclear cells (PBMCs) and calculating % BTKO. In Part 2, blood samples were taken on day 1 predose and at 2, 4, and 8 hours after dosing; days 2-10 predose and 4 hours post-dose; and at 24, 48, and 72 hours after the last dose and at the follow-up visit.
After PBMCs were isolated from whole blood, they were lysed and prepared for the measurement of BTK occupancy using a custom streptavidin-coated Meso Scale Discovery (MSD) immunoassay. Percent occupancy was calculated as 100%×([Baseline free BTK−Free BTK with treatment]/Baseline Free BTK).

[2] = Metabolic stability in liver microsomes; assay type: in vitro ADME, human
Description: as §1

For C=CC(=O)N[C@H]1CCC[C@H]1NC(=O)c1sc2nccc3c2c1NC(=O)N3c1cnc(CC(C)C)cc1C (atropisomer, axis not shown) [compound of Formula (III), N-((1R,2S)-2-Acrylamidocyclopentyl)-5-(S)-(6-isobutyl-4-methylpyridin-3-yl)-4-oxo-4,5-dihydro-3H-1-thia-3,5,8-triazaacenaphthylene-2-carboxamide], the “% Free in plasma” value ([1]; 2.5 μM) was 3.23%, the “% Free in plasma” value ([1]; 25 μM) was 3.72% and the fraction unbound at 0.25 μM ([1]; guinea pig, plasma, 0.25 μM, read-out: % Free in plasma) was 0.0326. The “BTKO at 24 hr, ss, median observed” value (BTK; 36 mg QD) was 69.5%, the “Calculated Average BTKO, observed” value (BTK; 36 mg QD) was 74.2% and the “Max BTKO at ss, median observed” value (BTK; 36 mg QD) was 78.9%. The “mean % BTKO” value (BTK; 36 mg QD, day 1, 4 hours) was 34%, the “mean % BTKO” value (BTK; 36 mg QD, day 10, 4 hours) was 80% and the “BTKO at 24 hr, ss, median observed” value (BTK; 100 mg QD) was 84.1%. For the same molecule, the “Calculated Average BTKO, observed” value (BTK; 100 mg QD) was 89.1%, the “Max BTKO at ss, median observed” value (BTK; 100 mg QD) was 94.1% and the “mean % BTKO” value (BTK; 100 mg QD, day 1, 4 hours) was 61%. For the same molecule, the “mean % BTKO” value (BTK; 100 mg QD, day 10, 4 hours) was 91%, the “BTKO at 24 hr, ss, median observed” value (BTK; 200 mg QD) was 78.9% and the “Calculated Average BTKO, observed” value (BTK; 200 mg QD) was 88.8%. For the same molecule, the “Max BTKO at ss, median observed” value (BTK; 200 mg QD) was 98.8%, the “mean % BTKO” value (BTK; 200 mg QD, day 1, 4 hours) was 94% and the “mean % BTKO” value (BTK; 200 mg QD, day 10, 4 hours) was 98%. For the same molecule, the “mean % BTKO lower, capsule vs solution” value (BTK; 4 hours post-dose) was “≈ 37%”, the “mean % BTKO lower, capsule vs solution” value (BTK; 24 hours post-dose) was “≈ 30%” and the “mean % BTKO at follow-up visit (7-14 days)” value (BTK; Part 1, all treatment groups) was ≤ 42%. For the same molecule, the “mean % BTKO at follow-up visit (7 to 14 days)” value (BTK; Part 2, all treatment groups) was < 40%, the “mean BTKO” value (BTK; 24 hours after Day 10 dose) was “above 65%” and the “mean BTKO” value (BTK; 72 hours after Day 10 dose) was > 30%. The “mean % BTKO” value (BTK; single 36 mg, females, 4 hours) was 55%, the “mean % BTKO” value (BTK; single 36 mg, males, 4 hours) was 39% and the “peak mean % BTKO” value (BTK; single 100 mg solution, fed, 8 hours post-dose) was 73%. For the same molecule, the “mean % BTKO” value (BTK; single 100 mg solution, male fasted, 4 hours post-dose) was 86%, the “mean % BTKO” value (BTK; single 100 mg, females, 4 hours) was 81% and the “mean % BTKO” value (BTK; single 105 mg capsule, 4 hours) was 54%. For the same molecule, the “mean % BTKO” value (BTK; single 105 mg capsule, 24 hours) was 53%, the “maximum % BTKO (mean)” value (BTK; single and multiple doses ≥100 mg) was ≥ 90% and the “duration of BTKO” value (BTK; single doses ≥100 mg) was “up to 72 hours”. For the same molecule, the “% BTKO” value (BTK; single doses ≥100 mg, male fasted, 4 hours) was ~100%, the “Extraction Ratio, liver microsomes” value ([2]; Human) was 0.63 and the microsomal CLint ([2]; human, liver microsomes) was 31.1 µL/min/mg. It also gave a half-life ([2]; human, liver microsomes, read-out: T1/2, liver microsomes) of 22.3 min.
